# Activity calls are given as the source filed them. The rule behind the calls is not given here.
# Tests used:
# [1] = target: Histamine H2 receptor (Homo sapiens) (UniProt P25021); test: Binding affinity to human histamine H2 receptor
# [2] = system: Mus musculus; test: Antiobesity activity in po dosed diet-induced obese mouse assessed as reduction in accumulated food intake after 4 to 12 hrs; type: functional, organism-based
# [3] = system: Mus musculus; test: Antiobesity activity in diet-induced obese mouse assessed as reduction in accumulated food intake at 1 to 3 mg/kg, po after 12 hrs (reference value: 27.3 %); type: functional; parameters: scale not given: the % may be the effect or the level left; details: dose mg/kg 1-3
# [4] = system: Mus musculus; test: Antiobesity activity in diet-induced obese mouse assessed as reduction in accumulated food intake at 1 to 3 mg/kg, po after 6 hrs (reference value: 0.1 %); type: functional; parameters: scale not given: the % may be the effect or the level left; details: dose mg/kg 1-3
# [5] = system: Mus musculus; test: Antiobesity activity in diet-induced obese mouse assessed as reduction in accumulated food intake at 1 to 3 mg/kg, po after 4 hrs (reference value: -4.7 %); type: functional; parameters: scale not given: the % may be the effect or the level left; details: dose mg/kg 1-3
# [6] = target: Voltage-gated inwardly rectifying potassium channel KCNH2 (Homo sapiens, UniProt Q12809); test: Inhibition of human ERG channel
# Chain of Voltage-gated inwardly rectifying potassium channel KCNH2 (Q12809 whole entry): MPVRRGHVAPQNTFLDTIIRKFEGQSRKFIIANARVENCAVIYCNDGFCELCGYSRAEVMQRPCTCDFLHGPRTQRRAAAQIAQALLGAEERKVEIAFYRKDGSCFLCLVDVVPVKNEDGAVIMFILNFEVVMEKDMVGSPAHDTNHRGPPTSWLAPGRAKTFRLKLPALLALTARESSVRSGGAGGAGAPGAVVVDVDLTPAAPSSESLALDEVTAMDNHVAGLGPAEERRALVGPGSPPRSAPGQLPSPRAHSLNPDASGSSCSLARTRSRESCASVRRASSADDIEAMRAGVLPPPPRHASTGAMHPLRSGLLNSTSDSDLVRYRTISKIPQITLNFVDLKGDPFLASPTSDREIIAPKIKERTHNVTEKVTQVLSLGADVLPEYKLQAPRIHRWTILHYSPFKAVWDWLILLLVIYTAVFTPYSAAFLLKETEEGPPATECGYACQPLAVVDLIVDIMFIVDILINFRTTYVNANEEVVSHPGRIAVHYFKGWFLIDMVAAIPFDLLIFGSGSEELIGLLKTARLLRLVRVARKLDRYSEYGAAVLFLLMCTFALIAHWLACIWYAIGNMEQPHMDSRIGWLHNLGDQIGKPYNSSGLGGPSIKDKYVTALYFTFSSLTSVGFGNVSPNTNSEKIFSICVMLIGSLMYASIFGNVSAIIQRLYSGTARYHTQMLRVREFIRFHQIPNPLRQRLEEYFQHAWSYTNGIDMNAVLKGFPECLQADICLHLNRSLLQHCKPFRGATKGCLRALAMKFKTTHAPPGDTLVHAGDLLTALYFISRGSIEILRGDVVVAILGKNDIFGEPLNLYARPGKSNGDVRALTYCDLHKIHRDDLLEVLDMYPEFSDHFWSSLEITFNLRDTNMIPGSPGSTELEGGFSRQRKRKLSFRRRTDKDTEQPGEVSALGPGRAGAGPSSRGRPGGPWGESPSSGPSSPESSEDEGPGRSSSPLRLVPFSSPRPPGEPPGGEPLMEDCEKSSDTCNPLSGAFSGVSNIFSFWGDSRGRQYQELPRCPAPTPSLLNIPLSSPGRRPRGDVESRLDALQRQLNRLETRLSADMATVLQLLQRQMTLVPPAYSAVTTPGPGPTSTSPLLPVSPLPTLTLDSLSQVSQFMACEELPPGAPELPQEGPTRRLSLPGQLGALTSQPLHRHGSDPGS
# [7] = Solubility of the compound; type: physicochemical
# [8] = target: Histamine H1 receptor (Homo sapiens, UniProt P35367); test: Binding affinity to human histamine H1 receptor
# Chain of Histamine H1 receptor (P35367 whole entry): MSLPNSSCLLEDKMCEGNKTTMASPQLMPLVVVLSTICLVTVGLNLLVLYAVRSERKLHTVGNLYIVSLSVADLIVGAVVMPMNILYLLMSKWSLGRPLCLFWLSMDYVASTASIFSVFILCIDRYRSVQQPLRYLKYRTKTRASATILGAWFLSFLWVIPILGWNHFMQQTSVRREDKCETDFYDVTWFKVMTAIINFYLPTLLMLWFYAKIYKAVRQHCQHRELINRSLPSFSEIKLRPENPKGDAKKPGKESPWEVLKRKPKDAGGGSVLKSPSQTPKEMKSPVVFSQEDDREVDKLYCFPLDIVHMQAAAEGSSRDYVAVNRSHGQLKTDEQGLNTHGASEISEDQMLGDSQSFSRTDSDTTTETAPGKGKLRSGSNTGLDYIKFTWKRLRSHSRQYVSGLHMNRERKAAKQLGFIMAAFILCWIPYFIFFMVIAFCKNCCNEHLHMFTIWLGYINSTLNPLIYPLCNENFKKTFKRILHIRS
# [9] = Antagonist activity at rhesus monkey histamine H3 receptor by GTPgammaS binding assay; parameters: species or system Macaca mulatta
# [10] = target: Histamine H3 receptor (Rattus norvegicus, UniProt Q9QYN8); test: Displacement of [3H]N-alpha-methylhistamine from rat histamine H3 receptor
# Chain of Histamine H3 receptor (Rattus norvegicus, UniProt Q9QYN8) (Q9QYN8 whole entry): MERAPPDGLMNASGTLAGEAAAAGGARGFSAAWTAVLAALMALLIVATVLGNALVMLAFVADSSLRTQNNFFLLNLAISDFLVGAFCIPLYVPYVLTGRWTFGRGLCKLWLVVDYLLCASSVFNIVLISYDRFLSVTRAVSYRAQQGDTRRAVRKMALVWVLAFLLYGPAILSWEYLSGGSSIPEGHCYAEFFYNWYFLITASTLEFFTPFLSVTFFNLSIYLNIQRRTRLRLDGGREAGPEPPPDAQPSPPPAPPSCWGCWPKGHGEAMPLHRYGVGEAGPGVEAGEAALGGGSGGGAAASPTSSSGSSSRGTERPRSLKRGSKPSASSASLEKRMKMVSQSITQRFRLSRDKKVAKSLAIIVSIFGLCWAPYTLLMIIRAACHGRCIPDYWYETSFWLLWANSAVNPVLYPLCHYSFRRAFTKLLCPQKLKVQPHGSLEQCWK
# [11] = target: Histamine H3 receptor (Homo sapiens, UniProt Q9Y5N1); test: Displacement of [3H]N-alpha-methylhistamine from human histamine H3 receptor
# Chain of Histamine H3 receptor (Homo sapiens, UniProt Q9Y5N1) (Q9Y5N1 whole entry): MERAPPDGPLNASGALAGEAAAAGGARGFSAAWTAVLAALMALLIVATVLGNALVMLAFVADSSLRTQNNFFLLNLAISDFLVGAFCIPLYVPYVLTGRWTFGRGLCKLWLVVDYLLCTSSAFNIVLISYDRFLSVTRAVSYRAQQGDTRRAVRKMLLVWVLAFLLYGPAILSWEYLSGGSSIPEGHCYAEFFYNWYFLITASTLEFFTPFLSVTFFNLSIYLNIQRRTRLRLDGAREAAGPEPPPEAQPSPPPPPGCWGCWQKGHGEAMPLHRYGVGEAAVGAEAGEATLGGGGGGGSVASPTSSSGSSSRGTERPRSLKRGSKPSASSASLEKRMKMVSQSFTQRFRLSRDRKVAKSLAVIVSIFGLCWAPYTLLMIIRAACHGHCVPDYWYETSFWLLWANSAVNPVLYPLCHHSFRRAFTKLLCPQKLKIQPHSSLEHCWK
# [12] = Drug metabolism in rat liver microsomes; type: ADME, Microsome; details: read-out: Drug metabolism
# [13] = Drug metabolism in human liver microsomes; type: ADME, Microsome; details: read-out: Drug metabolism
# [14] = Displacement of [3H]N-alpha-methylhistamine from rhesus monkey histamine H3 receptor transfected in CHO cells; type: cell-based, Macaca mulatta
# [15] = Apparent permeability across human Caco2/TC7 cells; type: ADME, cell-based; details: Caco-2
# [16] = Drug metabolism in mouse liver microsomes; type: ADME, Microsome; details: read-out: Drug metabolism
# [17] = target: T1, hERG (KCNH2) (Homo sapiens, UniProt Q12809); test: Inhibition of human ERG channel at 10 uM
# T1 sequence (Q12809 whole entry): as the sequence (Q12809 whole entry) above
# [18] = target: T1, hERG (KCNH2); test: Inhibition of human ERG channel at 1 uM
# Chain of Histamine H2 receptor (Homo sapiens) (P25021 whole entry): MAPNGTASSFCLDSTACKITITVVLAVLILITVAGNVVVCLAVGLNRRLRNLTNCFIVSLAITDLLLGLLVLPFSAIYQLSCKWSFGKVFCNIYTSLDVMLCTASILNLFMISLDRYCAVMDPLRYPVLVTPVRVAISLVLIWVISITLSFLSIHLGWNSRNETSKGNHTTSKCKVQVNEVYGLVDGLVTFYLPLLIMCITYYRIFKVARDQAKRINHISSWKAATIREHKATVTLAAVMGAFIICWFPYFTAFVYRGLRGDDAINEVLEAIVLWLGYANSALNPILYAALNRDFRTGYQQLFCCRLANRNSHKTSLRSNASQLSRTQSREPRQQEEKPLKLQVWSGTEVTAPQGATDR
smiles,measurement,setting,value
Cc1cc(N2CCC(N3CCCC3C)C2)ccc1NC(=O)c1cc(F)ccc1C (stereo not given),Activity,[1],inactive
same,Activity,[2],Dose-dependent effect
same,Activity,[3],30.4%
same,Activity,[4],39.6%
same,Activity,[5],59.8%
same,IC50,[6],480 nM
same,solubility,[7],2670 µg/mL
same,Ki,[8],> 9300 nM
same,EC50,[9],1.1 nM
same,Ki,[10],16.5 nM
same,Ki,[11],8.6 nM
same,metabolised,[12],38%
same,metabolised,[13],5%
same,Ki,[14],1.2 nM
same,Papp,[15],9.19 ×10⁻⁶ cm/s
Cc1cc(N2CCC(N3CCCC3C)C2)ccc1NC(=O)c1ccc2cc[nH]c2c1 (stereo not given),metabolised,[12],64%
same,metabolised,[16],21%
same,metabolised,[13],16%
same,Ki,[14],15.1 nM
same,Papp,[15],7.81 ×10⁻⁶ cm/s
CC1CCCN1C1CCN(c2ccc(NC(=O)c3ccc(Cl)cc3)cc2)C1 (stereo not given),inhibition at 10 µM,[17],95%
same,inhibition at 1 µM,[18],19.9%
same,metabolised,[12],90%
same,metabolised,[16],43%
same,metabolised,[13],20%
same,Ki,[14],4.7 nM
Cc1cc(NC(=O)c2ccc(Cl)cc2)ccc1N1CCC(N2CCCC2C)C1 (stereo not given),metabolised,[12],90%
same,metabolised,[16],43%
same,metabolised,[13],29%
same,Ki,[14],4.8 nM
Cc1cc(N2CC3CC4CCCN4C3C2)ccc1NC(=O)c1cc(F)ccc1C (stereo not given),Ki,[14],908 nM
Cc1cc(N2CCC(N3CCCC3C)C2)ccc1NC(=O)c1cccs1 (stereo not given),Ki,[14],12.4 nM
Cc1cc(N2CCC(N3CCCC3C)C2)ccc1NC(=O)c1ccc(-n2cncn2)cc1 (stereo not given),Ki,[14],8.1 nM
Cc1cc(N2CCC(CN3CCCC3C)C2)ccc1NC(=O)c1ccc(CO)cc1 (stereo not given),Ki,[14],62.1 nM
CC1CCCN1C1CCN(c2ccc(NC(=O)c3ccccc3F)cc2)C1 (stereo not given),metabolised,[12],48%
same,metabolised,[16],31%
same,metabolised,[13],12%
same,Ki,[14],8.2 nM
Cc1cc(N2CCC(N3CCCC3C)C2)ccc1NC(=O)c1ccc(C#N)cc1 (stereo not given),Ki,[14],11.3 nM
Cc1noc(C)c1C(=O)Nc1ccc(N2CCC(N3CCCC3C)C2)cc1 (stereo not given),metabolised,[12],24%
same,metabolised,[16],12%
same,metabolised,[13],13%
same,Ki,[14],2.1 nM
Cc1cc(N2CCC(N3CCCC3C)C2)ccc1NC(=O)c1ccc(Oc2ccccn2)cc1 (stereo not given),Ki,[14],22.8 nM
CC1CCCN1C1CCN(c2ccc(NC(=O)c3cccs3)cc2)C1 (stereo not given),Ki,[14],14 nM
Cc1ccc(F)cc1C(=O)Nc1ccc(N2CCC(N3CCCC3C)C2)cc1 (stereo not given),Ki,[14],4.7 nM
CC1CCCN1C1CCN(c2ccc(NC(=O)c3cccc(F)c3)cc2)C1 (stereo not given),Ki,[14],10.6 nM
Cc1cc(NC(=O)c2cccs2)ccc1N1CCC(N2CCCC2C)C1 (stereo not given),Ki,[14],19.9 nM
CC1CCCN1C1CCN(c2ccc(NC(=O)c3ccccc3N(C)C)cc2)C1 (stereo not given),Ki,[14],13.8 nM
Cc1cc(C)n(-c2ccc(C(=O)Nc3ccc(N4CCC(N5CCCC5C)C4)cc3C)cc2)n1 (stereo not given),metabolised,[12],79%
same,metabolised,[16],89%
same,metabolised,[13],87%
same,Ki,[14],4.3 nM
CC1CCCN1C1CCN(c2ccc(NC(=O)c3ccc(CN4CCOCC4)cc3)cc2)C1 (stereo not given),Ki,[14],70.2 nM
Cc1cc(N2CCC(N3CCCC3C)C2)ccc1NC(=O)c1cccnc1 (stereo not given),metabolised,[12],57%
same,metabolised,[16],30%
same,metabolised,[13],9%
same,Ki,[14],10.1 nM
Cc1cc(N2CCC(N3CCCC3C)C2)ccc1NC(=O)c1c(C)noc1C (stereo not given),Ki,[14],2.6 nM
Cc1cc(N2CCC(N3CCCC3C)C2)ccc1NC(=O)c1cc(Cl)cc(Cl)c1 (stereo not given),Ki,[14],24.1 nM
Cc1cc(N2CCC(CN3CCCC3C)C2)ccc1NC(=O)c1ccc(-n2cccc2)cc1 (stereo not given),Ki,[14],3.1 nM
CC1CCCN1C1CCN(c2ccc(NC(=O)c3cccc(N(C)C)c3)cc2)C1 (stereo not given),Ki,[14],33.3 nM
Cc1cc(N2CCC(N3CCCC3C)C2)ccc1NC(=O)c1ccc(N2CCOCC2)cc1 (stereo not given),Ki,[14],44 nM
CC1CCCN1C1CCN(c2ccc(NC(=O)c3cccc(F)c3)c(C(F)(F)F)c2)C1 (stereo not given),Ki,[14],40 nM
CC1CCCN1C1CCN(c2ccc(NC(=O)c3cn[nH]c3)cc2)C1 (stereo not given),Ki,[14],22.1 nM
